The source of these data is publication PMC6891444, “Immune Checkpoint PD-1/PD-L1 CTLA-4/CD80 are Blocked by Rhus verniciflua Stokes and its Active Compounds” (Molecules, 2019).

The first test addresses T1, CTLA-4/CD80 interaction (Homo sapiens, UniProt P16410).
T1 construct: purchased BPS Bioscience #71149 (CTLA-4); #71114 (biotinylated CD80)
T1 sequence (P16410 37-162 limits assumed): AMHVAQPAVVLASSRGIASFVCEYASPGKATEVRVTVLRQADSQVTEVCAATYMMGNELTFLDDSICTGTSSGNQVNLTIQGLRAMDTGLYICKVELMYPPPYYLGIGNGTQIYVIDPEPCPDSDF
Briefly: CTLA-4/CD80 competitive ELISA (Inhibitor Screening Assay Kit). Particulars: mean of three independent replicates, read-out: IC50, CTLA-4/CD80 blocking effect. Format: binding. How it is done:
Competitive ELSIA was performed using a PD–1/PD-L1 or CTLA-4/CD80 Inhibitor Screening Assay Kit, according to the supplier’s instructions. An aliquot of 1 μg/mL recombinant human PD-L1 (BPS Bioscience, #71104) or CTLA-4 (BPS Bioscience, #71149) were coated onto a 96-well plate overnight. Plates were washed with phosphate-buffered saline (PBS) containing 0.1% Tween (PBS-T), blocked for 1 h at room temperature with PBS-T containing 2% (w/v) bovine serum albumen, and washed again. After washing, vehicle or test samples were added, and the reaction continued for 1 h. As a positive control, PD-L1 inhibitor C1 or anti-CTLA-4 neutralizing antibody were used. Biotinylated hPD–1 (BPS Bioscience, #71109) or biotinylated hCD80 (BPS Bioscience, #71114) was added to each well, and plates were incubated for 2 h at room temperature. After three washes with PBS-T, diluted streptavidin-horseradish peroxidase (HRP) was added to each well, and plates were reacted for 1 h while shaking at low speed. After the reaction, plates were washed three times with PBS-T, and HRP substrates A and B were added. Relative chemiluminescence was measured on a SpectraMax L Luminometer (Molecular Devices, San Jose, California, USA) and expressed as the relative binding activity. The results were normalized to the relative percentage of the vehicle control group. Half-maximal inhibitory concentration (IC50) was calculated using Prism “log[inhibitor] vs. normalized response” equation.
A general note: An ELISA detects its analyte on a solid surface through an enzyme-linked reagent.
As to `O=C(O)/C=C/c1ccc(O)c(O)c1` [Compound 19, caffeic acid], the IC50 was determined as 10 µM.

Regarding `O=C(O)c1ccc(O)c(O)c1` [Compound 2, protocatechuic acid], the IC50 came out at 4.51 µM.

For the compound `O=C1c2c(O)cc(O)cc2OC(c2ccc(O)c(O)c2)C1O` (stereo not shown) [Compound 5, taxifolin], the IC50 amounted to 35.5 µM.

The target in the next test is T2, PD-1/PD-L1 interaction (Homo sapiens, UniProt Q9NZQ7).
T2 construct: purchased BPS Bioscience #71104 (PD-L1); #71109 (biotinylated PD-1)
T2 sequence (Q9NZQ7 19-239 limits assumed): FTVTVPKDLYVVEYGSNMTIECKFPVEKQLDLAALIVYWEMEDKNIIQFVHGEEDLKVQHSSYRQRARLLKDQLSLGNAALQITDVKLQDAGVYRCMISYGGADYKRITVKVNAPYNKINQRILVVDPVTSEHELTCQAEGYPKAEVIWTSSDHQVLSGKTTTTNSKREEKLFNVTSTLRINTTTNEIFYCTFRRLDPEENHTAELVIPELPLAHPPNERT
Briefly: PD-1/PD-L1 competitive ELISA (Inhibitor Screening Assay Kit). Format: binding. The conditions noted are these: mean of three independent replicates, read-out: IC50, PD-1/PD-L1 blocking effect. As to the method:
Competitive ELSIA was performed using a PD–1/PD-L1 or CTLA-4/CD80 Inhibitor Screening Assay Kit, according to the supplier’s instructions. An aliquot of 1 μg/mL recombinant human PD-L1 (BPS Bioscience, #71104) or CTLA-4 (BPS Bioscience, #71149) were coated onto a 96-well plate overnight. Plates were washed with phosphate-buffered saline (PBS) containing 0.1% Tween (PBS-T), blocked for 1 h at room temperature with PBS-T containing 2% (w/v) bovine serum albumen, and washed again. After washing, vehicle or test samples were added, and the reaction continued for 1 h. As a positive control, PD-L1 inhibitor C1 or anti-CTLA-4 neutralizing antibody were used. Biotinylated hPD–1 (BPS Bioscience, #71109) or biotinylated hCD80 (BPS Bioscience, #71114) was added to each well, and plates were incubated for 2 h at room temperature. After three washes with PBS-T, diluted streptavidin-horseradish peroxidase (HRP) was added to each well, and plates were reacted for 1 h while shaking at low speed. After the reaction, plates were washed three times with PBS-T, and HRP substrates A and B were added. Relative chemiluminescence was measured on a SpectraMax L Luminometer (Molecular Devices, San Jose, California, USA) and expressed as the relative binding activity. The results were normalized to the relative percentage of the vehicle control group. Half-maximal inhibitory concentration (IC50) was calculated using Prism “log[inhibitor] vs. normalized response” equation. All results are presented as the mean of three independent biological replicates. * p < 0.05, ** p < 0.01, *** p < 0.001, compared with the vehicle control group.
Consider `O=C1C[C@@H](c2ccc(O)cc2)Oc2cc(O)ccc21` [Compound 13, liquiritigenin], for which the IC50 came to 11.8 µM.

As to `O=c1c(O)c(-c2ccc(O)c(O)c2)oc2cc(O)ccc12` [Compound 9, fisetin], the IC50 was found to be 0.04 µM.

With `O=c1c(O)c(-c2ccc(O)c(O)c2)oc2cc(O)cc(O)c12` [Compound 18, quercetin], the IC50 turned out to be 5.71 µM.

With `O=C1C[C@@H](c2ccc(O)c(O)c2)Oc2cc(O)cc(O)c21` [Compound 7, eriodictyol], the IC50 came to 0.04 µM.
